The source of these data is patent US11780845B2 (Relay Therapeutics, Inc., priority 2019, dated 2023).

pIC50: −log10 of the molar value.

What is called pIC50 is −log10 of the IC50, conventionally taken in molar units. A high value points to a low IC50.

The target in one experiment is FGFR2 (Homo sapiens (Human), UniProt P21802). Kind of experiment: FGFR2 Biochemical Caliper Assay. On the procedure: Compounds of the present invention were also tested in a FGFR2 Biochemical Caliper Assay. Compounds were prepared in 10 mM DMSO solution and serially diluted into 11 concentrations by 3-fold dilution. […] 5 uL of ATP solution (100 uM) was added to start the reaction and the plate was incubated for 90 minutes, then 70 uL of stopping buffer (0.5M EDTA) was added to terminate the reaction. Each well was analyzed using EZ reader.

The next experiment deals with SNU16 cells. Put plainly: SNU16 Cancer Cell Line Proliferation Assay. Format: cell-based. Conditions: Homo sapiens; SNU-16 cells. The gist of the method:
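SNU16 cells were seeded, held 24 h at 37 degrees, then dosed with an 11-point 3-fold dilution series prepared from a 10 mM DMSO stock. After 96 h incubation, viability was read by CellTiter Glo luminescence.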

Chain of FGFR2 (P21802 22-821): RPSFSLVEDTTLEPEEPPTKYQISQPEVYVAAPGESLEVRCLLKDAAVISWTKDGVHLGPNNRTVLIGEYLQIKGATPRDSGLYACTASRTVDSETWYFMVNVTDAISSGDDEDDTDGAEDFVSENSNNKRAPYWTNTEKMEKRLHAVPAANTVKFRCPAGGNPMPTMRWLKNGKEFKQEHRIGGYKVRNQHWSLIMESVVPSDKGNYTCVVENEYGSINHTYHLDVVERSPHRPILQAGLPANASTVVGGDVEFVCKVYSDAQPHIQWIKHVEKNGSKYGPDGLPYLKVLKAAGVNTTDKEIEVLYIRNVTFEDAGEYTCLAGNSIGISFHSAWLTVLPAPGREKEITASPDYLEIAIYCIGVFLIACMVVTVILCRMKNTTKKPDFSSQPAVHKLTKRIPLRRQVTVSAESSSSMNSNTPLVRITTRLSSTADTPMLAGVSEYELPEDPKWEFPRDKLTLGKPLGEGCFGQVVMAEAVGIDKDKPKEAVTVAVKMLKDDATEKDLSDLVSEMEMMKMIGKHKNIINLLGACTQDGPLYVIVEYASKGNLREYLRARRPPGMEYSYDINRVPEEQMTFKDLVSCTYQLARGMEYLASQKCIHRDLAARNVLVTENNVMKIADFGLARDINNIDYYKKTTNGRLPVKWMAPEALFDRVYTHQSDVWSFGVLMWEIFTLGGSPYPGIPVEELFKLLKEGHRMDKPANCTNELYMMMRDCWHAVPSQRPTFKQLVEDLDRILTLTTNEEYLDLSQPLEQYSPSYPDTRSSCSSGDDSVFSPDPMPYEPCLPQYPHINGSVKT

In the case of `C=C(C)C(=O)Nc1ccc(-c2c(-c3ncc(Oc4nccc(C)n4)cc3F)c3c(N)ncnc3n2C)cc1` [Example 572], the pIC50 is more than 7.00 against FGFR2 and not below 7.00 with SNU16 cells.
The matching figures for `C=C(C)C(=O)Nc1ccc(-c2c(-c3ccc(C(=O)NCC4CC4)cc3)c3c(N)ncnc3n2C)cc1` [Example 320]: more than 7.00 and not below 7.00.
Taken in the same sequence, the figures for `C=CC(=O)Nc1ccc(-c2c(-c3ccc(Oc4nccc(C)n4)c(OC)c3)c3c(N)ncnc3n2C)cc1` [Example 38] were more than 7.00 and not below 7.00.
On to `C=CC(=O)N(C)c1ccc(-c2[nH]c3ncnc(N)c3c2-c2ccc(Oc3cccc(C)n3)cc2)cc1` [Example 777], for which the pIC50 against FGFR2 and with SNU16 cells was 4.00 to 6.00 throughout.
On to `C=C(C)C(=O)Nc1ccc(-c2c(-c3ccc(Oc4nccc(C(F)F)n4)cc3)c3c(N)ncnc3n2C)cc1` [Example 600], for which the figures for the pIC50 against FGFR2 and in the experiment on SNU16 cells were more than 7.00 and not below 7.00, respectively.
The matching figures for `C=CS(=O)(=O)N1CCC(n2cc(-c3c(-c4ccc(Oc5cccc(C)n5)cc4)c4c(N)ncnc4n3C)cn2)CC1` [Example 648]: more than 7.00 and 6.60 to 7.00.
Turning to `C=C(C)C(=O)Nc1ccc(-c2c(-c3ccc(C(=O)N4CC5CCC4C5)cc3)c3c(N)ncnc3n2C)cc1` (centres unmarked) [Example 258], the pIC50 on FGFR2 was more than 7.00; with SNU16 cells, not below 7.00.
Taken in the same sequence, the figures for `C=CC(=O)N1CCC(c2c(-c3ccc(Oc4cccc(C)n4)c(OC)c3)c3c(N)ncnc3n2C)CC1` [Example 619] were 6.60 to 7.00 and 6.60 to 7.00.
In the case of `C=C(C)C(=O)Nc1ccc(-c2c(-c3ccc(Oc4cccc(C)n4)nc3)c3c(N)ncnc3n2C)cc1` [Example 441], the negative logarithm of the IC50 (pIC50) on FGFR2 and in the experiment on SNU16 cells was 6.00 to 6.60 in each case.
For the compound `CC#CC(=O)Nc1ccc(-c2c(-c3ccc(C(=O)N4CCCC4)cc3)c3c(N)ncnc3n2C)cc1` [Example 155], the pIC50 was more than 7.00 against FGFR2 and not below 7.00 in the experiment on SNU16 cells.
On to `CC#CC(=O)N1CCC(c2c(-c3ccc(Oc4cccc(C)n4)cc3)c3c(N)ncnc3n2C)CC1` [Example 695], for which the figures for the pIC50 against FGFR2 and in the experiment on SNU16 cells were 6.60 to 7.00 and not below 7.00, respectively.
The matching figures for `C=C(C)C(=O)Nc1ccc(-c2c(C3=CC[C@@H](C(=O)N4CCCC4)CC3)c3c(N)ncnc3n2C)cc1` (single isomer, unassigned) [Example 397]: 4.00 to 6.00 and 6.00 to 6.60.
Turning to `C=C(C)C(=O)Nc1ccc(-c2c(-c3ccc(Oc4cccc(C)n4)cc3F)c3c(N)ncnc3n2C)cc1` [Example 442], the pIC50 is more than 7.00 at FGFR2 and not below 7.00 in the experiment with SNU16 cells.
The matching figures for `C=C(C)C(=O)Nc1ccc(-c2c(-c3cc(C)c(Oc4nccc(C)n4)c(OC)c3)c3c(N)ncnc3n2C)cc1` [Example 497]: 6.60 to 7.00 and not below 7.00.
The matching figures for `C=CC(=O)Nc1ccc(-c2c(-c3ccc(Oc4cccc(C)n4)cc3)c3c(N)ncnc3n2C)cc1F` [Example 11]: more than 7.00 and not below 7.00.
The matching figures for `C=CC(=O)N1CCC(c2c(-c3cnn(CCN(C)C)c3)c3c(N)ncnc3n2C)C1` (centres unmarked) [Example 715]: 4.00 to 6.00 and 4.00 to 6.00.
Take `C=CC(=O)N1CCCC(n2cc(-c3c(-c4ccc(Oc5cccc(C)n5)cc4)c4c(N)ncnc4n3C)cn2)C1` (centres unmarked) [Example 629]: the pIC50 against FGFR2 is more than 7.00; in the experiment with SNU16 cells, not below 7.00.
With `C=C(C)C(=O)Nc1ccc(-c2c(-c3ccc(C(=O)NCC4(OC)CCC4)cc3)c3c(N)ncnc3n2C)cc1` [Example 351], the pIC50 at FGFR2 is more than 7.00; in the experiment on SNU16 cells it was not below 7.00.
Taken in the same sequence, the figures for `C=C(C)C(=O)Nc1ccc(-c2c(-c3ccc(C(=O)N4CC5COCC5C4)cc3)c3c(N)ncnc3n2C)cc1` (centres unmarked) [Example 249] were 6.00 to 6.60 and 6.00 to 6.60.
The matching figures for `C=C(C)C(=O)Nc1ccc(-c2c(-c3ccc(Sc4ncccn4)cc3)c3c(N)ncnc3n2C)cc1` [Example 69]: 6.00 to 6.60 and 6.00 to 6.60.
The matching figures for `C=C(C)C(=O)Nc1ccc(-c2c(-c3ccc(C(=O)N4CCC[C@H]4C#N)c(F)c3)c3c(N)ncnc3n2C)cc1` [Example 437]: more than 7.00 and not below 7.00.
Turning to `C=C(C)C(=O)Nc1ccc(-c2c(-c3ccc(C(=O)N4CCCC4)cc3)c3c(N)ncnc3n2C)c(C2CC2)c1` [Example 520], the negative-log IC50 (pIC50) on FGFR2 and in the experiment with SNU16 cells was 6.60 to 7.00 throughout.
With `C=C(C)C(=O)Nc1ccc(-c2c(-c3ccc(Oc4nccc(C)n4)c(F)c3)c3c(N)ncnc3n2CCO)cc1` [Example 490], the figures for the pIC50 against FGFR2 and in the experiment on SNU16 cells were more than 7.00 and not below 7.00, respectively.
Taken in the same sequence, the figures for `C=CC(=O)N1CCC(c2c(-c3ccc(C4CCOCC4)cc3)c3c(N)ncnc3n2C)C1` (centres unmarked) [Example 751] were 6.00 to 6.60 and 6.60 to 7.00.
Consider `C=CC(=O)N1CCC(c2c(-c3ccc(Oc4ncccn4)cc3)c3c(N)ncnc3n2C2CCOCC2)C1` (centres unmarked) [Example 704], for which the negative logarithm of the IC50 (pIC50) was 6.00 to 6.60 against FGFR2 and 6.60 to 7.00 with SNU16 cells.
The matching figures for `C=C(C)C(=O)Nc1ccc(-c2c(-c3ccc(Oc4nccc(C)n4)cc3C#N)c3c(N)ncnc3n2C)cc1` [Example 564]: 4.00 to 6.00 and 6.00 to 6.60.
The matching figures for `C=C(C)C(=O)Nc1ccc(-c2c(-c3ccc(Oc4nccc(C)n4)c(C(F)F)c3)c3c(N)ncnc3n2C)cc1` [Example 594]: 6.60 to 7.00 and not below 7.00.
The matching figures for `CC#CC(=O)N1CCC(c2c(-c3ccc(C(=O)N4CCCC4)cc3)c3c(N)ncnc3n2C)C1` (centres unmarked) [Example 747]: more than 7.00 and not below 7.00.
In the case of `C=CC(=O)N1CCC(n2cc(-c3c(-c4ccc(Oc5cccc(C)n5)c(OC)c4)c4c(N)ncnc4n3C)cn2)CC1` [Example 641], the negative-log IC50 (pIC50) at FGFR2 was more than 7.00; with SNU16 cells, not below 7.00.
On to `C=CC(=O)N1CCC(n2cc(-c3c(-c4ccc(Oc5ccc(C)cn5)cc4)c4c(N)ncnc4n3C)cn2)CC1` [Example 636], for which the pIC50 is 6.60 to 7.00 on FGFR2 and not below 7.00 in the experiment on SNU16 cells.
The matching figures for `C=C(C)C(=O)Nc1ccc(-c2c(-c3ccc(C(=O)NCC4CCCN4C)cc3)c3c(N)ncnc3n2C)cc1` (centres unmarked) [Example 377]: 6.00 to 6.60 and 6.00 to 6.60.
The matching figures for `C=C(C)C(=O)Nc1ccc(-c2c(-c3ccc(C(=O)N4CCCC4)c(OC)c3)c3c(N)ncnc3n2C)cc1` [Example 156]: 6.00 to 6.60 and 6.60 to 7.00.
Taken in the same sequence, the figures for `C=C(C)C(=O)Nc1ccc(-c2c(-c3ccc(C(=O)NC4(COC)CCC4)cc3)c3c(N)ncnc3n2C)cc1` [Example 365] were more than 7.00 and not below 7.00.
As for `C=C(C)C(=O)Nc1ccc(-c2c(-c3ccc(C(=O)N4CCC(C)CC4)cc3)c3c(N)ncnc3n2C)cc1` [Example 190], the pIC50 was 4.00 to 6.00 against FGFR2 and 6.00 to 6.60 with SNU16 cells.
Taken in the same sequence, the figures for `C=CC(=O)N1CCC(n2cc(-c3c(-c4ccc(Oc5ccccn5)c(OC)c4)c4c(N)ncnc4n3C)cn2)CC1C` (centres unmarked) [Example 664] were 6.60 to 7.00 and 6.60 to 7.00.
Taken in the same sequence, the figures for `C=CC(=O)N1CC[C@@H](c2c(-c3ccc(Oc4ncccn4)cc3)c3c(N)ncnc3n2C)C1` (single isomer, unassigned) [Example 697] were more than 7.00 and not below 7.00.
The matching figures for `C=CC(=O)N1CCC(c2c(-c3cnn(C4CCN(C)CC4)c3)c3c(N)ncnc3n2C)C1` (centres unmarked) [Example 743]: 6.00 to 6.60 and 4.00 to 6.00.
